Data taken from the supplement of paper PMC10307832.

Experiments:
Experiment in all cases: relative viability (nuclei count vs DMSO), 5 days (fraction); higher = more cells survive
Bortezomib + Foretinib = compound: CC(C)C[C@H](NC(=O)[C@H](Cc1ccccc1)NC(=O)c1cnccn1)B(O)O [Bortezomib] + COc1cc2c(Oc3ccc(NC(=O)C4(C(=O)Nc5ccc(F)cc5)CC4)cc3F)ccnc2cc1OCCCN1CCOCC1 [Foretinib] (partner 0.25 µM)
Summary of the method: (§1)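 Relative viability was taken as the ratio of nuclei in treated wells to nuclei in vehicle wells. Lung cancer cell lines in 1536-well plates received compounds by pin tool one day after seeding, either one drug alone or a fixed anchor-drug dose plus five library-drug doses (not always all listed) in √10 steps. Nuclei were counted on 4× images after 5 days of treatment, and values are medians of duplicate plates.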

Bortezomib + Crizotinib = compound: CC(C)C[C@H](NC(=O)[C@H](Cc1ccccc1)NC(=O)c1cnccn1)B(O)O [Bortezomib] + C[C@@H](Oc1cc(-c2cnn(C3CCNCC3)c2)cnc1N)c1c(Cl)ccc(F)c1Cl [Crizotinib] (partner 1 µM)
Summary of the method: as §1

Obatoclax + Trametinib = compound: COC1=CC(c2cc3ccccc3[nH]2)=N/C1=C\c1[nH]c(C)cc1C [Obatoclax] + CC(=O)Nc1cccc(-n2c(=O)n(C3CC3)c(=O)c3c(Nc4ccc(I)cc4F)n(C)c(=O)c(C)c32)c1 [Trametinib] (partner 0.02 µM)
Summary of the method: as §1

Obatoclax + AZD7762 = compound: COC1=CC(c2cc3ccccc3[nH]2)=N/C1=C\c1[nH]c(C)cc1C [Obatoclax] + NC(=O)Nc1cc(-c2cccc(F)c2)sc1C(=O)N[C@H]1CCCNC1 [AZD7762] (partner 0.2 µM)
Summary of the method: as §1

Cell Line | relative viability (Bortezomib + Foretinib; first compound 0.0002 µM) | relative viability (Bortezomib + Foretinib; first compound 0.000632 µM) | relative viability (Bortezomib + Foretinib; first compound 0.002 µM) | relative viability (Bortezomib + Foretinib; first compound 0.006325 µM) | relative viability (Bortezomib + Foretinib; first compound 0.02 µM) | relative viability (Bortezomib + Crizotinib; first compound 0.0002 µM) | relative viability (Bortezomib + Crizotinib; first compound 0.000632 µM) | relative viability (Bortezomib + Crizotinib; first compound 0.002 µM) | relative viability (Bortezomib + Crizotinib; first compound 0.006325 µM) | relative viability (Bortezomib + Crizotinib; first compound 0.02 µM) | relative viability (Obatoclax + Trametinib; first compound 0.01 µM) | relative viability (Obatoclax + Trametinib; first compound 0.03162 µM) | relative viability (Obatoclax + Trametinib; first compound 0.1 µM) | relative viability (Obatoclax + Trametinib; first compound 0.3162 µM) | relative viability (Obatoclax + Trametinib; first compound 1 µM) | relative viability (Obatoclax + AZD7762; first compound 0.01 µM) | relative viability (Obatoclax + AZD7762; first compound 0.03162 µM) | relative viability (Obatoclax + AZD7762; first compound 0.1 µM) | relative viability (Obatoclax + AZD7762; first compound 0.3162 µM) | relative viability (Obatoclax + AZD7762; first compound 1 µM)
NCI-H1993 | 0.802 | 0.755 | 0.912 | 0.648 | 0.479 | 0.876 | 0.974 | 0.847 | 0.342 | 0.506 | 0.553 | 0.632 | 0.574 | 0.462 | 0.72 | 0.769 | 0.789 | 0.898 | 0.818 | 0.536
LOU-NH91 | 0.863 | 0.867 | 0.328 | 0.258 | 0.243 | 0.749 | 0.708 | 0.342 | 0.314 | 0.319 | 0.766 | 0.784 | 0.717 | 0.723 | 0.592 | 0.703 | 0.717 | 0.646 | 0.667 | 0.539
LCLC-103H | 0.679 | 0.698 | 0.268 | 0.162 | 0.13 | 1.04 | 1.04 | 0.997 | 0.756 | 0.207 | 0.64 | 0.702 | 0.63 | 0.678 | 0.694 | 0.766 | 0.727 | 0.682 | 0.871 | 0.917
NCI-H1915 | 1.05 | 1.12 | 1.1 | 0.112 | 0.0806 | 0.877 | 0.909 | 0.694 | 0.435 | 0.0428 | 0.296 | 0.285 | 0.328 | 0.284 | 0.315 | 0.697 | 0.573 | 0.648 | 0.752 | 0.562
NCI-H1734 | 0.786 | 0.9 | 0.759 | 0.176 | 0.109 | 0.737 | 0.71 | 0.491 | 0.106 | 0.0952 | 0.636 | 0.744 | 0.688 | 0.681 | 0.689 | 0.513 | 0.499 | 0.456 | 0.472 | 0.238
NCI-H2170 | 1.02 | 0.952 | 1.03 | 0.596 | 0.167 | 1.03 | 1.02 | 1.11 | 0.233 | 0.18 | 0.877 | 0.942 | 0.904 | 0.856 | 0.861 | 0.851 | 0.844 | 0.801 | 0.831 | 0.743
HCC-15 | 0.933 | 1.09 | 0.628 | 0.0908 | 0.0905 | 0.784 | 0.825 | 0.904 | 0.46 | 0.0815 | 0.43 | 0.297 | 0.401 | 0.353 | 0.411 | 1.04 | 1.34 | 1.21 | 1.25 | 1.36
HCC-366 | 0.917 | 0.889 | 1.01 | 0.627 | 0.0395 | 0.522 | 0.682 | 0.598 | 0.275 | 0.0107 | 0.348 | 0.323 | 0.321 | 0.245 | 0.228 | 0.289 | 0.218 | 0.184 | 0.227 | 0.243
NCI-H1355 | 0.944 | 0.983 | 0.998 | 0.155 | 0.14 | 1.02 | 1.06 | 0.788 | 0.275 | 0.139 | 0.403 | 0.462 | 0.439 | 0.35 | 0.454 | 0.698 | 0.709 | 0.613 | 0.735 | 0.647
LU99A | 0.887 | 0.721 | 0.812 | 0.755 | 0.227 | 0.592 | – | 0.561 | 0.274 | 0.153 | 0.598 | 0.55 | – | 0.631 | 0.557 | 0.379 | 0.359 | – | 0.146 | 0.135
NCI-H1395 | 1.01 | 0.927 | 0.759 | 0.341 | 0.328 | – | – | – | – | – | 0.914 | 0.999 | 0.931 | 0.94 | 0.737 | 0.396 | 0.395 | 0.393 | 0.375 | 0.348
NCI-H2342 | 1.02 | 0.945 | 0.829 | 0.929 | 0.34 | – | – | – | – | – | 0.859 | 0.849 | 0.907 | 0.788 | 0.861 | 0.614 | 0.392 | 0.51 | 0.363 | 0.389
NCI-H1793 | 0.611 | 0.617 | 0.666 | 0.512 | 0.155 | – | – | – | – | – | 0.341 | 0.458 | 0.445 | 0.447 | 0.42 | 0.484 | 0.419 | 0.499 | 0.368 | 0.209
SW 900 | 0.87 | 0.743 | 0.155 | 0.119 | 0.126 | – | – | – | – | – | 1.06 | 0.762 | 0.931 | 0.62 | 0.547 | 0.588 | 0.489 | 0.671 | 0.46 | 0.519
